Measurements published in ChEMBL document CHEMBL1201862, “PubChem BioAssay data set” (2004).
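Protocol summary: plate cells (96-well), add compound at 5 concentrations, incubate 48 h, interpolate endpoints linearly. GI50: concentration for 50% inhibition of growth.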 The source made the active and inactive calls. No stated cut-off is given here; in the data, active = GI50 up to about 1.1 µM and inactive = higher.

Tests used:
Assay in all cases: DTP human tumour cell line panel, 48 h
NCI-H460 = tested on: NCI-H460
A549 = tested on: A549
MOLT-4 = tested on: MOLT-4
UACC-62 = tested on: UACC-62
NCI-H522 = tested on: NCI-H522
A498 = tested on: A498
SNB-75 = tested on: SNB-75
HT-29 = tested on: HT-29
SF-539 = tested on: SF-539
HOP-92 = tested on: HOP-92
LXFL 529 = tested on: LXFL 529
M14 = tested on: M14
HCC 2998 = tested on: HCC 2998
UO-31 = tested on: UO-31
SF-268 = tested on: SF-268
RPMI-8226 = tested on: RPMI-8226
EKVX = tested on: EKVX

Measured: GI50

O=[N+]([O-])c1cccc(C2=NOC(C3CCCCC3)C2)c1 (stereo unspecified)
inactive: NCI-H460 > 100 µM | A549 > 100 µM | MOLT-4 > 100 µM | UACC-62 > 100 µM | NCI-H522 > 100 µM | A498 > 100 µM | SNB-75 > 100 µM | HT-29 82 µM | SF-539 > 100 µM | HOP-92 > 100 µM | LXFL 529 > 100 µM | M14 > 100 µM | HCC 2998 > 100 µM | UO-31 > 100 µM | SF-268 > 100 µM

O=C1c2ccccc2C(=O)C1(Cl)C1(S(=O)(=O)O)c2ccccc2-c2ccccc21
inactive: NCI-H460 > 100 µM | A549 > 100 µM | MOLT-4 > 100 µM | RPMI-8226 > 100 µM | UACC-62 > 100 µM | NCI-H522 > 100 µM | A498 > 100 µM | SNB-75 > 100 µM | HT-29 > 100 µM | SF-539 > 100 µM | HOP-92 > 100 µM | LXFL 529 > 100 µM | M14 > 100 µM | HCC 2998 > 100 µM | UO-31 > 100 µM | SF-268 > 100 µM

CC(=O)c1ccc(NC(=O)C(=O)C(C(=O)c2ccc(Cl)c(Cl)c2)C2OC(=O)c3ccccc32)cc1 (stereo unspecified)
inactive: NCI-H460 13.2 µM | A549 21.4 µM | MOLT-4 > 100 µM | UACC-62 19.4 µM | NCI-H522 9.38 µM | A498 16.6 µM | EKVX 40 µM | HT-29 25.3 µM | HOP-92 24.5 µM | LXFL 529 11 µM | M14 17.7 µM | HCC 2998 13.7 µM | UO-31 24.4 µM | SF-268 16.3 µM

O=C(c1ccccc1)N1CCN2CCN=C(c3ccccc3)C21c1ccccc1 (stereo unspecified)
inactive: NCI-H460 94.8 µM | A549 95.3 µM | MOLT-4 20.2 µM | RPMI-8226 25.5 µM | UACC-62 18.1 µM | A498 > 100 µM | SNB-75 51.3 µM | EKVX 70.8 µM | HT-29 > 100 µM | SF-539 71.3 µM | HOP-92 17.1 µM | LXFL 529 97.9 µM | M14 61.2 µM | HCC 2998 > 100 µM | UO-31 22.8 µM

COc1c(C)cc(O)cc1C=O
inactive: NCI-H460 > 100 µM | A549 > 100 µM | MOLT-4 > 100 µM | RPMI-8226 > 100 µM | UACC-62 > 100 µM | NCI-H522 > 100 µM | SNB-75 > 100 µM | EKVX > 100 µM | HT-29 > 100 µM | SF-539 > 100 µM | HOP-92 > 100 µM | LXFL 529 > 100 µM | M14 > 100 µM | HCC 2998 > 100 µM | UO-31 > 100 µM | SF-268 > 100 µM

O=P(CN1CCOCC1)(c1ccccc1)c1ccccc1
inactive: NCI-H460 > 100 µM | A549 > 100 µM | MOLT-4 > 100 µM | RPMI-8226 > 100 µM | UACC-62 > 100 µM | NCI-H522 > 100 µM | A498 > 100 µM | SNB-75 > 100 µM | EKVX > 100 µM | HT-29 > 100 µM | SF-539 > 100 µM | HOP-92 > 100 µM | LXFL 529 > 100 µM | M14 > 100 µM | UO-31 > 100 µM | SF-268 > 100 µM

CN(C)c1ccc(/C=C2\CCc3ccccc3C2=O)cc1Br
inactive: NCI-H460 > 100 µM | A549 51.3 µM | MOLT-4 32.6 µM | RPMI-8226 24.8 µM | UACC-62 40.2 µM | NCI-H522 23.2 µM | SNB-75 > 100 µM | EKVX 99.5 µM | HT-29 33.1 µM | SF-539 > 100 µM | HOP-92 62.7 µM | LXFL 529 48.3 µM | M14 53.6 µM | HCC 2998 > 100 µM | UO-31 > 100 µM | SF-268 65 µM

Cc1c2n(c(=O)[nH]c1=O)C1OC(CO)C(O2)C1N=[N+]=[N-] (stereo unspecified)
inactive: NCI-H460 > 100 µM | A549 > 100 µM | MOLT-4 > 100 µM | RPMI-8226 > 100 µM | UACC-62 > 100 µM | NCI-H522 > 100 µM | A498 78 µM | SNB-75 > 100 µM | EKVX > 100 µM | HT-29 > 100 µM | SF-539 > 100 µM | HOP-92 > 100 µM | LXFL 529 > 100 µM | UO-31 > 100 µM | SF-268 > 100 µM

CCCCCCCCOCC(COC(=O)CCCCCCC)OC(=O)CCCCCCC (stereo unspecified)
inactive: NCI-H460 > 100 µM | A549 > 100 µM | MOLT-4 > 100 µM | RPMI-8226 > 100 µM | UACC-62 > 100 µM | A498 > 100 µM | HT-29 > 100 µM | HOP-92 51.5 µM | LXFL 529 > 100 µM | M14 > 100 µM | HCC 2998 > 100 µM | UO-31 > 100 µM | SF-268 > 100 µM
